Measured values as given in patent publication US11154563B2, “Immunoproteasome inhibitors” (Principia Biopharma Inc., priority 2017, dated 2021).

Experiments:
Type in all cases: biochemical
[1] = molecular target: immunoproteasome LMP7/B5i subunit (Homo sapiens, UniProt P20618+P28062); assay: Caliper-based proteasome enzymatic activity assay, LMP7; details: human recombinant immunoproteasome 0.3 nM, FAM-peptide substrate 1 μM, 3 h at rt
Method in brief: (§1)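 Recombinant human immunoproteasome or constitutive proteasome (0.3 nM) with 1 μM FAM-peptide in 20 mM Hepes pH 7.4, 0.015% SDS, 0.01% BSA; LMP7/β5c ran 3 h at rt and were stopped with 5 uM carfilzomib, LMP2 ran 2 h and was stopped with 6.7 uM ixazomib. Cleaved product quantified by microfluidic separation; IC50 from percent inhibition.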

[2] = molecular target: immunoproteasome LPM2/β1i subunit (Homo sapiens, UniProt P28065+P40306); assay: Caliper-based proteasome enzymatic activity assay, LMP2; details: human recombinant immunoproteasome 0.3 nM, FAM-peptide substrate 1 μM, 2 h at rt
Method: A Caliper-based proteasome assay (Caliper Life Sciences, Hopkinton, Mass.) was used to measure inhibition of the immunoproteasome LMP7/B5i subunit, the immunoproteasome LPM2/β1i subunit, and the constitutive proteasome β5c unit for a compound of Formula (I). For LMP7 and β5c, serial dilutions of test compounds were incubated with either human recombinant immunoprotcasome or constitutive proteasome (0.3 nM enzyme) and a carboxyfluorescein (FAM)-labeled peptide substrate FAM-TYETFKSIMKKSPF-NH2 (1 μM) at it for 3 h. The reaction was then terminated with a buffer containing the known proteasome inhibitor carfilzomib at a concentration of 5 uM. For LMP2, serial dilutions of test compounds were incubated with human recombinant immunoproteasome proteasome (0.3 nM enzyme) and a carboxyfluorescein (FAM)-labeled peptide substrate FAM-[…]-NH2 (1 μM) at rt for 2 h. The reaction was then terminated with a buffer containing the known proteasome inhibitor ixazomib at a concentration of 6.7 uM. The reaction buffer was 20 mM Hepes pH 7.4, 0.01% bovine serum albumin, 0.015% SDS, 0.5 mM EDTA, 1%0/DMSO. The peptide cleavage reaction product was quantified on a Caliper LabChip 3000. Percent inhibition was calculated for each compound dilution and the concentration that produced 50% inhibition was calculated. This value is presented as the IC50.

[3] = molecular target: constitutive proteasome β5c unit (Homo sapiens, UniProt P20618+P28074); assay: Caliper-based proteasome enzymatic activity assay, β5c; details: human recombinant constitutive proteasome 0.3 nM, FAM-peptide substrate 1 μM, 3 h at rt; read-out: β5c subunit IC50
Method in brief: as §1

IC50 [1] [nM]	IC50 [2] [nM]	IC50 [3] [nM]	SMILES
11	> 5000	3480	CC(C)(C=C(C#N)C(=O)N1CCCC[C@@H]1COC(=O)N[C@@H](Cc1ccccc1)B(O)O)N1CCCC1 [Example 27]
1.5	> 5000	2190	CC(C)(C=C(C#N)C(=O)N1CCCC[C@@H]1COC(=O)N[C@@H](Cc1ccccc1)B(O)O)N1CCC(F)(F)C1 [Example 28, ((R)-1-(((((R)-1-(2-cyano-4-(3,3-difluoropyrrolidin-1-yl)-4-methylpent-2-enoyl)piperidin-2-yl)methoxy)carbonyl)amino)-2-phenylethyl)boronic acid]
2.9	> 5000	3400	CC(C)(C=C(C#N)C(=O)N1CCCC[C@@H]1COC(=O)N[C@@H](Cc1ccccc1)B(O)O)N1CCOCC1 [Example 29, ((R)-1-(((((R)-1-(2-cyano-4-methyl-4-morpholinopent-2-enoyl)piperidin-2-yl)methoxy)carbonyl)amino)-2-phenylethyl)boronic acid]
16	> 5000	> 5000	CC(C)(C=C(C#N)C(=O)N1CCCC[C@@H]1COC(=O)N[C@@H](Cc1ccccc1)B(O)O)N1CCCCC1 [Example 30, ((R)-1-(((((R)-1-(2-cyano-4-methyl-4-(piperidin-1-yl)pent-2-enoyl)piperidin-2-yl)methoxy)carbonyl)amino)-2-phenylethyl)boronic acid]
12	> 5000	2390	CC(C)(C=C(C#N)C(=O)N1CCCC[C@@H]1COC(=O)N[C@@H](Cc1ccccc1)B(O)O)N1CCC(F)(F)CC1 [Example 31, ((R)-1-(((((R)-1-(2-cyano-4-(4,4-difluoropiperidin-1-yl)-4-methylpent-2-enoyl)piperidin-2-yl)methoxy)carbonyl)amino)-2-phenylethyl)boronic acid]
9.2	> 5000	713	Cc1ccc(C[C@H](NC(=O)OC[C@H]2CCCCCN2C(=O)C(C#N)=CC(C)(C)C)B(O)O)cc1 [Example 32, ((R)-1-(((((R)-1-(2-cyano-4,4-dimethylpent-2-enoyl)azepan-2-yl)methoxy)carbonyl)amino)-2-(p-tolyl)ethyl)boronic acid]
41	> 5000	> 5000	Cc1ccc(C[C@H](NC(=O)OC[C@@H]2CCCCCN2C(=O)C(C#N)=CC(C)(C)C)B(O)O)cc1 [Example 33, ((R)-1-(((((S)-1-(2-cyano-4,4-dimethylpent-2-enoyl)azepan-2-yl)methoxy)carbonyl)amino)-2-(p-tolyl)ethyl)boronic acid]
14	> 5000	3370	CC(C)(C=C(C#N)C(=O)N1CCC[C@@H]1COC(=O)N[C@@H](Cc1ccccc1)B(O)O)N1CCCC1 [Example 34, ((R)-1-(((((R)-1-(2-cyano-4-methyl-4-(pyrrolidin-1-yl)pent-2-enoyl)pyrrolidin-2-yl)methoxy)carbonyl)amino)-2-phenylethyl)boronic acid]
2	> 5000	3020	CC(C)(C=C(C#N)C(=O)N1CCC[C@@H]1COC(=O)N[C@@H](Cc1ccccc1)B(O)O)N1CCC(F)(F)C1 [Example 35, ((R)-1-(((((R)-1-(2-cyano-4-(3,3-difluoropyrrolidin-1-yl)-4-methylpent-2-enoyl)pyrrolidin-2-yl)methoxy)carbonyl)amino)-2-phenylethyl)boronic acid]
6.9	> 5000	397	C=CC(=O)N1CCC[C@@H]1COC(=O)N[C@@H](Cc1coc2ccccc12)B(O)O [Example 36, ((R)-1-(((((R)-1-acryloylpyrrolidin-2-yl)methoxy)carbonyl)amino)-2-(benzofuran-3-yl)ethyl)boronic acid]
4	> 5000	1960	CC(C)(C)C=C(C#N)C(=O)N1C[C@H]2C[C@H]2[C@@H]1COC(=O)N[C@@H](Cc1ccccc1)B(O)O [Example 37, ((R)-1-(((((1R,2R,5S)-3-(2-cyano-4,4-dimethylpent-2-enoyl)-3-azabicyclo[3.1.0]hexan-2-yl)methoxy)carbonyl)amino)-2-phenylethyl)boronic acid]
7	> 5000	> 5000	CC(C)(C)C=C(C#N)C(=O)N1C[C@@H]2C[C@@H]2[C@H]1COC(=O)N[C@@H](Cc1ccccc1)B(O)O [Example 38]
1.2	> 5000	187	CC(C)(C)C=C(C#N)C(=O)N1CCC[C@@H]1COC(=O)N[C@@H](Cc1coc2ccccc12)B(O)O [Example 39, ((R)-2-(benzofuran-3-yl)-1-(((((R)-1-(2-cyano-4,4-dimethylpent-2-enoyl)pyrrolidin-2-yl)methoxy)carbonyl)amino)ethyl)boronic acid]
1.3	> 5000	228	CC(C)(C=C(C#N)C(=O)N1CCC[C@@H]1COC(=O)N[C@@H](Cc1coc2ccccc12)B(O)O)N1CCOCC1 [Example 40, ((R)-2-(benzofuran-3-yl)-1-(((((R)-(2-cyano-4-methyl-4-morpholinopent-2-enoyl)pyrrolidin-2-yl)methoxy)carbonyl)amino)ethyl)boronic acid]
1.6	> 5000	518	Cc1ccc(C[C@H](NC(=O)OC[C@H]2CCCCN2C(=O)C(C#N)=CC(C)(C)N2CCC(F)(F)C2)B(O)O)cc1 [Example 41, ((R)-1-(((((R)-1-(2-cyano-4-(3,3-difluoropyrrolidin-1-yl)-4-methylpent-2-enoyl)piperidin-2-yl)methoxy)carbonyl)amino)-2-(p-tolyl)ethyl)boronic acid]
2.8	> 5000	372	CC1(C=C(C#N)C(=O)N2CCCC[C@@H]2COC(=O)N[C@@H](Cc2coc3ccccc23)B(O)O)CCOCC1 [Example 59, ((R)-2-(benzofuran-3-yl)-1-(((((R)-1-(2-cyano-3-(4-methyltetrahydro-2H-pyran-4-yl)acryloyl)piperidin-2-yl)methoxy)carbonyl)amino)ethyl)boronic acid]
1	> 5000	2310	CC(C)(C=C(C#N)C(=O)N1C[C@@H]2C[C@@H]2[C@@H]1COC(=O)N[C@@H](Cc1ccccc1)B(O)O)N1CCOCC1 [Example 67, ((R)-1-(((((1S,2R,5R)-3-(2-cyano-4-methyl-4-morpholinopent-2-enoyl)-3-azabicyclo[3.1.0]hexan-2-yl)methoxy)carbonyl)amino)-2-phenylethyl)boronic acid]
1.2	3360	925	CC(C)(C=C(C#N)C(=O)N1C[C@@H]2C[C@@H]2[C@@H]1COC(=O)N[C@@H](Cc1ccccc1)B(O)O)N1CCC(F)(F)C1 [Example 74, ((R)-1-(((((1S,2R,5R)-3-(2-cyano-4-(3,3-difluoropyrrolidin-1-yl)-4-methylpent-2-enoyl)-3-azabicyclo[3.1.0]hexan-2-yl)methoxy)carbonyl)amino)-2-phenylethyl)boronic acid]
1.4	> 5000	2150	CC(C)(C=C(C#N)C(=O)N1CCCC[C@@H]1COC(=O)N[C@@H](Cc1ccc(F)cc1)B(O)O)N1CCC(F)(F)C1 [Example 82, ((R)-1-(((((R)-1-(2-cyano-4-(3,3-difluoropyrrolidin-1-yl)-4-methylpent-2-enoyl)piperidin-2-yl)methoxy)carbonyl)amino)-2-(4-fluorophenyl)ethyl)boronic acid]
